Data taken from patent publication US7524853B2 (Solvay Pharmaceuticals B.V., priority 2003, dated 2009).

Experiments:
Format in all cases: cell-based
[1] = target: T1, 17β-hydroxysteroid dehydrogenase type 3 (17β-HSD type 3) (Homo sapiens, UniProt P37058); experiment: Inhibition of 17β-HSD type 3 in MCF-7 cells stably expressing the isoenzyme (tritium labeled androstenedione conversion, HPLC); conditions: MCF-7 cells expressing 17β-HSD type 3, 2 nM tritium labeled androstenedione; for % Inhibition HSD3 1 μM / inhibition at 1 µM: 1 μM test compound; for % Inhibition HSD3 10 μM / inhibition at 10 µM: 10 μM test compound; for inhibition at 1 µM / inhibition at 10 µM: MCF7; for inhibition at 1 µM: read-out: % Inhibition HSD3 1 μM; for inhibition at 10 µM: read-out: % Inhibition HSD3 10 μM
T1 construct: expressed in transfected cells; host or cells: MCF-7
T1 sequence (P37058 1-310): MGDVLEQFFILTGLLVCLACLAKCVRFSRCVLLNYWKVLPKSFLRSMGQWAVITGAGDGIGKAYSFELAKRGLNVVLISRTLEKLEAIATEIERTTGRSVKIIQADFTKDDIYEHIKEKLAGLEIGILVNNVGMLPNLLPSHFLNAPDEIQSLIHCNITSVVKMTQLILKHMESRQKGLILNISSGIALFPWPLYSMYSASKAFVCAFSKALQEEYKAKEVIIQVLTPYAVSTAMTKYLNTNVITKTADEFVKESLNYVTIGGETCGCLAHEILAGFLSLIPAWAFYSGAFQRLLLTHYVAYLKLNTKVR
Outline: (§1)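 MCF-7 lines stably expressing each 17β-HSD isoenzyme incubated in growth medium with compound at two concentrations and 2 nM tritiated substrate (estrone, type 1; estradiol, type 2; androstenedione, type 3). Reaction stopped with TCA; conversion measured by HPLC with flow scintillation, inhibition relative to compound-free control.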

[2] = target: T2, 17β-hydroxysteroid dehydrogenase type 2 (17β-HSD type 2) (Homo sapiens, UniProt P37059); experiment: Inhibition of 17β-HSD type 2 in MCF-7 cells stably expressing the isoenzyme (tritium labeled estradiol conversion, HPLC); conditions: MCF-7 cells expressing 17β-HSD type 2, 2 nM tritium labeled estradiol; for % Inhibition HSD2 1 μM / inhibition at 1 µM: 1 μM test compound; for % Inhibition HSD2 10 μM / inhibition at 10 µM: 10 μM test compound; for inhibition at 1 µM / inhibition at 10 µM: MCF7; for inhibition at 1 µM: read-out: % Inhibition HSD2 1 μM; for inhibition at 10 µM: read-out: % Inhibition HSD2 10 μM
T2 construct: expressed in transfected cells; host or cells: MCF-7
T2 sequence (P37059 1-387): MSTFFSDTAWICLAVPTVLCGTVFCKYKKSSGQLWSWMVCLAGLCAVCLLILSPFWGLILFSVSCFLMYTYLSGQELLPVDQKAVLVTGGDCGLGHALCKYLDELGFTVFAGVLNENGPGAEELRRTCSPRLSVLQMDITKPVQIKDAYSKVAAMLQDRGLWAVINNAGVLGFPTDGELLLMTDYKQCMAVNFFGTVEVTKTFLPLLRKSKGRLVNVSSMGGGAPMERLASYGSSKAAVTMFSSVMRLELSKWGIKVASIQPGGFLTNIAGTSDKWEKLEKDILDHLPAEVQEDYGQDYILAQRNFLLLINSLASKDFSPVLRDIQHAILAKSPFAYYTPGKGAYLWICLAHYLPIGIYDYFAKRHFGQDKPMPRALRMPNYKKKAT
Outline: as §1

[3] = target: T3, 17β-hydroxysteroid dehydrogenase type 1 (17β-HSD type 1) (Homo sapiens, UniProt P14061); experiment: Inhibition of 17β-HSD type 1 in MCF-7 cells stably expressing the isoenzyme (tritium labeled estrone conversion, HPLC); conditions: MCF-7 cells expressing 17β-HSD type 1, 2 nM tritium labeled estrone; for % Inhibition HSD1 1 μM / inhibition at 1 µM: 1 μM test compound; for % Inhibition HSD1 10 μM / inhibition at 10 µM: 10 μM test compound; for inhibition at 1 µM / inhibition at 10 µM: MCF7; for inhibition at 1 µM: read-out: % Inhibition HSD1 1 μM; for inhibition at 10 µM: read-out: % Inhibition HSD1 10 μM
T3 construct: expressed in transfected cells; host or cells: MCF-7
T3 sequence (P14061 1-328): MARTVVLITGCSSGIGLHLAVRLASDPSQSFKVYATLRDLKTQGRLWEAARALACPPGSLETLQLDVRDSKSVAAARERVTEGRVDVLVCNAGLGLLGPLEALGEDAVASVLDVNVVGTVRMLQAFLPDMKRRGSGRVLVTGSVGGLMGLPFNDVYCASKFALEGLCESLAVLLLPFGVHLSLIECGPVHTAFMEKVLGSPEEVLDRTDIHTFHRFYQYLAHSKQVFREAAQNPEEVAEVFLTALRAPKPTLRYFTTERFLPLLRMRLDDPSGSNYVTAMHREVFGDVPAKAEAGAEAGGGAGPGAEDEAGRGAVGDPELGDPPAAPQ
Outline: as §1

% Inhibition HSD3 1 μM [1] [%]	% Inhibition HSD3 10 μM [1] [%]	% Inhibition HSD2 1 μM [2] [%]	% Inhibition HSD2 10 μM [2] [%]	% Inhibition HSD1 1 μM [3] [%]	% Inhibition HSD1 10 μM [3] [%]	inhibition at 1 µM [1] [%]	inhibition at 10 µM [1] [%]	inhibition at 1 µM [2] [%]	inhibition at 10 µM [2] [%]	inhibition at 1 µM [3] [%]	inhibition at 10 µM [3] [%]	Compound
33.6	76.2	18.2	24.0	22.6	39.3							O=c1c2c(nc(CCc3ccccc3)n1CCc1cccs1)sc1c(O)cccc12 [No. 639]
13.2	55.7	10.5	36.9	20.4	35.0							O=c1c2c(nc(Cc3ccccc3)n1CCc1cccs1)sc1c(O)cccc12 [No. 641]
23.4	46.1	20.1	43.3	15.7	34.2							O=c1c2c(nc(CCC3CCCC3)n1CCc1cccs1)sc1c(O)cccc12 [No. 643]
13.9	19.8	27.6	26.4	29.8	28.4							CCCCC(CC)c1nc2sc3c(O)cccc3c2c(=O)n1CCc1cccs1 (stereo not drawn) [No. 644]
21.7	22.7	48.8	75.5	17.2	29.1							COCc1nc2sc3c(O)cccc3c2c(=O)n1CCc1cccs1 [No. 645]
17.7	70.1	16.0	40.2	18.0	24.6							CC(C)=Cc1nc2sc3c(O)cccc3c2c(=O)n1CCc1cccs1 [No. 648]
22.9	76.1	16.3	33.9	14.4	35.4							O=c1c2c(nc(CCc3ccccc3)n1Cc1ccccc1)sc1c(O)cccc12 [No. 659]
16.6	19.9	19.8	48.9	21.7	37.1							O=c1c2c(nc(Cc3ccccc3)n1Cc1ccccc1)sc1c(O)cccc12 [No. 660]
12.4	45.6	37.4	57.6	26.3	24.6							CCCCC(CC)c1nc2sc3c(O)cccc3c2c(=O)n1Cc1ccccc1 (stereo not drawn) [No. 663]
16.9	37.0	20.9	63.7	20.1	51.9							CC(C)=Cc1nc2sc3c(O)cccc3c2c(=O)n1Cc1ccccc1 [No. 667]
						8.1	37.7	9.2	18.8	16.8	32.9	COc1cc(-c2nc3sc4c(c3c(=O)n2Cc2ccccc2)C(C)CCC4)cc(OC)c1OC (stereo not drawn) [No. 683, 3-Benzyl-5-methyl-2-(3,4,5-trimethoxyphenyl)-5,6,7,8-tetrahydro-3H-benzo[4,5]thieno[2,3-d]pyrimidin-4-one]
						24.7	10.5	9.2	11	24.6	63.3	COc1cc(-c2nc3sc4c(c3c(=O)n2Cc2ccccc2)C(C)CCC4=O)cc(OC)c1OC (stereo not drawn) [No. 684, 3-Benzyl-5-methyl-2-(3,4,5-trimethoxyphenyl)-6,7-dihydro-3H,5H-benzo[4,5]thieno[2,3-d]pyrimidin-4,8-dione]
						5.1	13.8	22.7	19.9	16.6	31.2	COc1cc(-c2nc3sc4c(c3c(=O)n2Cc2ccccc2)C(C)CC(Br)C4=O)c(Br)c(OC)c1OC (stereo not drawn) [No. 685, 3-Benzyl-7-bromo-2-(2-bromo-3,4,5-trimethoxyphenyl)-5-methyl-6,7-dihydro-3H,5H-benzo[4,5]thieno[2,3-d]pyrimidine-4,8-dione]
						-1.1	7.1	2.1	4.3	2.1	15	COc1cc(-c2nc3sc4c(O)ccc(C)c4c3c(=O)n2Cc2ccccc2)c(Br)c(OC)c1OC [No. 686, 3-Benzyl-2-(2-bromo-3,4,5-trimethoxyphenyl)-8-hydroxy-5-methyl-3H-benzo[4,5]thieno[2,3-d]pyrimidin-4-one]
						1.7	7.3	8.3	5.6	-3.3	5.5	COc1cc(-c2nc3sc4c(c3c(=O)n2Cc2ccccc2)CC(C)CC4)cc(OC)c1OC (stereo not drawn) [No. 687, 3-Benzyl-6-methyl-2-(3,4,5-trimethoxyphenyl)-5,6,7,8-tetrahydro-3H-benzo[4,5]thieno[2,3-d]pyrimidin-4-one]
						14.4	22.3	25.4	14.2	21.5	21.6	COc1cc(-c2nc3sc4c(c3c(=O)n2Cc2ccccc2)CC(C)CC4=O)cc(OC)c1OC (stereo not drawn) [No. 688, 3-Benzyl-6-methyl-2-(3,4,5-trimethoxyphenyl)-6,7-dihydro-3H,5H-benzo[4,5]thieno[2,3-d]pyrimidin-4,8-dione]
						-2.4	17.4	-3	5.7	7.7	5.7	COc1cc(-c2nc3sc4c(c3c(=O)n2Cc2ccccc2)CC(C)C(Br)C4=O)c(Br)c(OC)c1OC (stereo not drawn) [No. 689, 3-Benzyl-7-bromo-6-methyl-2-(2-bromo-3,4,5-trimethoxyphenyl)-6,7-dihydro-3H-benzo[4,5]thieno[2,3-d]pyrimidin-4,8-dione]
						-2.7	6.4	14.2	23.5	17.3	19.2	COc1cc(-c2nc3sc4c(O)cc(C)cc4c3c(=O)n2Cc2ccccc2)c(Br)c(OC)c1OC [No. 690, 3-Benzyl-2-(2-bromo-3,4,5-trimethoxyphenyl)-8-hydroxy-6-methyl-3H-benzo[4,5]thieno[2,3-d]pyrimidin-4-one]
						-5.3	11.9	2.1	-6.3	7	22.6	CCCCn1c(-c2cc(OC)c(OC)c(OC)c2)nc2sc3c(c2c1=O)CC(C)CC3 (stereo not drawn) [No. 691, 3-Butyl-6-methyl-2-(3,4,5-trimethoxyphenyl)-5,6,7,8-tetrahydro-3H-benzo[4,5]thieno[2,3-d]pyrimidin-4-one]
